Experimental data published in US20240308968A1, “FUNGICIDAL SUBSTITUTED HETEROCYCLES” (FMC Corporation, priority 2021, published 2024).

How the values were obtained:
Format in all cases: in vivo
Details in all cases: 100 = 100% disease control, 0 = no control
Zymoseptoria tritici = experiment: Test A: preventive spray on wheat seedlings, wheat leaf blotch disease rating
From the text: (§1) General protocol for preparing test suspensions for Tests A-F: the test compounds were first dissolved in acetone in an amount equal to 3% of the final volume and then suspended at the desired concentration (in ppm) in acetone and purified water (50/50 mix by volume) containing 50 to 250 ppm of the surfactant PEG400 (polyhydric alcohol esters). The resulting test suspensions were then used in Tests A-F.
The test solution was sprayed to the point of run-off on wheat seedlings. The following day the seedlings were inoculated with a spore suspension of Zymoseptoria tritici (the causal agent of wheat leaf blotch) and incubated in a saturated atmosphere at 24° C. for 48 h, and then moved to a growth chamber at 20° C. for 17 days, after which time disease ratings were made. […]

[1] = tested on: Puccinia recondita f. sp. Tritici; experiment: Test B: preventive spray on wheat seedlings, wheat leaf rust disease rating
From the text: as §1
The test solution was sprayed to the point of run-off on wheat seedlings. The following day the seedlings were inoculated with a spore suspension of Puccinia recondita f. sp. Tritici (the causal agent of wheat leaf rust) and incubated in a saturated atmosphere at 20° C. for 24 h, and then moved to a growth chamber at 20° C. for 7 days, after which time disease ratings were made.
(§2) The test suspension was sprayed to the point of run-off on tomato seedlings. The following day the seedlings were inoculated with a spore suspension of Alternaria solani (the causal agent of tomato early blight) and incubated in a saturated atmosphere at 27° C. for 48 h, and then moved to a growth chamber at 20° C. for 3 days, after which time visual disease ratings were made. A rating of 100 indicates 100% disease control and a rating of 0 indicates no disease control (relative to the controls). A dash (-) indicates the compound was not tested.

[2] = tested on: Blumeria graminis f. sp. Tritici; experiment: Test C: preventive spray on wheat seedlings, wheat powdery mildew disease rating
From the text: as §1
The test suspension was sprayed to the point of run-off on wheat seedlings. The following day the seedlings were inoculated with a spore dust of Blumeria graminis f. sp. Tritici, (also known as Erysiphe graminis f. sp. Tritici, the causal agent of wheat powdery mildew) and incubated in a growth chamber at 20° C. for 8 days, after which time visual disease ratings were made.
as §2

Phakopsora pachyrhizi = experiment: Test D: preventive spray on soybean seedlings, Asian soybean rust disease rating
From the text: as §1
The test solution was sprayed to the point of run-off on soybean seedlings. The following day the seedlings were inoculated with a spore suspension of Phakopsora pachyrhizi (the causal agent of Asian soybean rust) and incubated in a saturated atmosphere at 22° C. for 24 h and then moved to a growth chamber at 22° C. for 8 days, after which time visual disease ratings were made.
as §2

Botrytis cinerea = experiment: Test E: preventive spray on tomato seedlings, tomato Botrytis disease rating
From the text: as §1
The test suspension was sprayed to the point of run-off on tomato seedlings. The following day the seedlings were inoculated with a spore suspension of Botrytis cinerea (the causal agent of tomato Botrytis) and incubated in a saturated atmosphere at 20° C. for 48 h, and then moved to a growth chamber at 24° C. for 3 days, after which time visual disease ratings were made.
as §2

Alternaria solani = experiment: Test F: preventive spray on tomato seedlings, tomato early blight disease rating
From the text: as §1, §2

[3] = Zymoseptoria tritici, 456 h, 250 ppm
[4] = Puccinia recondita, 192 h, 250 ppm
[5] = Blumeria graminis, 192 h, 250 ppm
[6] = Phakopsora pachyrhizi, 216 h, 250 ppm
[7] = Botrytis cinerea, 120 h, 250 ppm
[8] = Alternaria solani, 120 h, 250 ppm

Compound | pest or weed control at 250 ppm (Zymoseptoria tritici; [3]) [%] | pest or weed control at 250 ppm [1, 4] [%] | pest or weed control at 250 ppm [2, 5] [%] | pest or weed control at 250 ppm (Phakopsora pachyrhizi; [6]) [%] | pest or weed control at 250 ppm (Botrytis cinerea; [7]) [%] | pest or weed control at 250 ppm (Alternaria solani; [8]) [%] | Test A disease control rating (Zymoseptoria tritici; 50 ppm) [%] | Test B disease control rating ([1]; 50 ppm) [%] | Test C disease control rating ([2]; 50 ppm) [%] | Test D disease control rating (Phakopsora pachyrhizi; 50 ppm) [%] | Test E disease control rating (Botrytis cinerea; 50 ppm) [%] | Test F disease control rating (Alternaria solani; 50 ppm) [%] | other results
COc1cc(OC)cc(-c2nc(C)nc(C)c2-c2ccc(F)cc2Cl)c1 [Compound 44, 5-(2-chloro-4-fluorophenyl)-4-(3,5-dimethoxyphenyl)-2,6-dimethylpyrimidine] | 99 | 100 | 99 | 95 | 99 | 98 |  |  |  |  |  |  | 
COc1ccc(Cl)c(-n2nc(C)c(=O)c(Br)c2-c2ccc(F)cc2Cl)c1 [Compound 124, 5-bromo-1-(2-chloro-5-methoxyphenyl)-6-(2-chloro-4-fluorophenyl)-3-methyl-4(1)-pyridazinone] |  |  |  |  |  |  | 100 | 100 | 100 | 100 | 99 | 100 | 
CCOC(=O)c1nn(-c2cc(OC)cc(OC)c2)c(-c2ccc(F)cc2F)c(C)c1=O [Compound 28, ethyl 6-(2,4-difluorophenyl)-1-(3,5-dimethoxyphenyl)-1,4-dihydro-5-methyl-4-oxo-3-pyridazinecarboxylate] | 0 | 83 | 43 | 0 | 31 | 0 |  |  |  |  |  |  | 
COc1cc(OC)cc(-c2nc(C)nc(OC)c2-c2ccc(F)cc2Cl)c1 [Compound 58] |  |  |  |  |  |  | 24 | 0 | 21 | 0 | 79 | 0 | 
COc1cc(OC)cc(-c2ncnc(OC)c2-c2c(F)cc(F)cc2F)c1 [Compound 51] |  |  |  |  |  |  | 0 | 9 | 0 | 8 | 30 | 0 | 
COc1cc(OC)cc(-n2c(-c3ccc(F)cc3Cl)c(Cl)c(=O)n(C)c2=O)c1 [Compound 38, 5-chloro-6-(2-chloro-4-fluorophenyl)-1-(3,5-dimethoxyphenyl)-3-methyl-2,4(1H,3H)-pyrimidinedione] |  |  |  |  |  |  |  |  |  |  |  |  | pest or weed control at 50 ppm (Zymoseptoria tritici; Zymoseptoria tritici, 456 h, 50 ppm): 0%; pest or weed control at 50 ppm ([1]; Puccinia recondita, 192 h, 50 ppm): 96%; pest or weed control at 50 ppm ([2]; Blumeria graminis, 192 h, 50 ppm): 0%; pest or weed control at 50 ppm (Phakopsora pachyrhizi; Phakopsora pachyrhizi, 216 h, 50 ppm): 0%; pest or weed control at 50 ppm (Botrytis cinerea; Botrytis cinerea, 120 h, 50 ppm): 70%; pest or weed control at 50 ppm (Alternaria solani; Alternaria solani, 120 h, 50 ppm): 0%
COc1cc(OC)cc(-c2nc(Cl)nc(C)c2-c2ccc(F)cc2Cl)c1 [Compound 47] |  |  |  |  |  |  |  |  |  |  |  |  | Test A disease control rating (Zymoseptoria tritici; 250 ppm): 100%; Test B disease control rating ([1]; 250 ppm): 100%; Test C disease control rating ([2]; 250 ppm): 98%; Test D disease control rating (Phakopsora pachyrhizi; 250 ppm): 98%; Test E disease control rating (Botrytis cinerea; 250 ppm): 93%; Test F disease control rating (Alternaria solani; 250 ppm): 92%
COc1ccc(Cl)c(-c2nc(C)nc(C)c2-c2ccc(F)cc2Cl)c1 [Compound 50, 5-(2-chloro-4-fluorophenyl)-4-(2-chloro-5-methoxyphenyl)-2,6-dimethylpyrimidine] | 100 | 100 | 100 | 100 | 99 | 100 |  |  |  |  |  |  | 
COc1cc(OC)cc(-c2cc(C#N)c(=O)n(C)c2-c2ccc(F)cc2Cl)c1 [Compound 158] |  |  |  |  |  |  | 0 | 68 | 0 | 0 | 40 | 0 | 
